Laboratory results as given in ChEMBL document CHEMBL1806439, “Synthesis and antihistamine evaluations of novel loratadine analogues” (2011).

Tests used:
Cavia porcellus [1] = test: Antiasthmatic activity in guinea pig assessed as inhibition of histamine phosphate solution-induced asthmatic reaction measured as increase in asthmogenic latency period at 0.5 mg/kg administered as intragastric (reference value: 99.30 +/- 30.06 sec); type: functional
Cavia porcellus [2] = test: Antiasthmatic activity in guinea pig assessed as inhibition of histamine phosphate solution-induced asthmatic reaction measured as increase in asthmogenic latency period at 0.2 mg/kg administered as intragastric (reference value: 95.50 +/- 18.98 sec); type: functional
[3] = molecular target: Histamine H1 receptor (Cavia porcellus) (UniProt P31389); test: Inhibition of histamine H1 receptor in guinea pig ileum assessed as inhibition of histamine-induced muscle spasms at 2 x 10 '-3 mg/ml after 5 mins (reference value: 0.31 %); type: tissue-based
Chain of Histamine H1 receptor (Cavia porcellus) (P31389 whole entry): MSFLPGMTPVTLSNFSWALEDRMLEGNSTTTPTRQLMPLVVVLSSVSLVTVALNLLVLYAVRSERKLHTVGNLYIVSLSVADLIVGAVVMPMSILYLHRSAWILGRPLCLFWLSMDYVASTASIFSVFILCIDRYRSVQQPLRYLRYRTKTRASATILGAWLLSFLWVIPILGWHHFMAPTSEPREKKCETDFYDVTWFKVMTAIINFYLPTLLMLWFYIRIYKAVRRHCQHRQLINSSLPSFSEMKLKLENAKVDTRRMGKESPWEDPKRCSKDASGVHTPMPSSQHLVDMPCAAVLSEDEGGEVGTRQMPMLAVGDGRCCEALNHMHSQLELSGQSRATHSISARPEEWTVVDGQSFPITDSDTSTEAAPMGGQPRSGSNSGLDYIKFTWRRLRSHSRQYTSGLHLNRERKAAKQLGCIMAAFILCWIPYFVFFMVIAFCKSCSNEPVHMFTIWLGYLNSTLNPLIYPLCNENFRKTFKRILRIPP

inhibition [3] | Structure (SMILES) | Time (Cavia porcellus [1]) | Time (Cavia porcellus [2])
49.7% | C[C@@H](CO)N1CCC(=C2c3ccc(Cl)cc3CCc3cccnc32)CC1 | 209.7 s | 112.8 s
32.4% | C[C@H](CO)N1CCC(=C2c3ccc(Cl)cc3CCc3cccnc32)CC1 | 215.6 s | 111.1 s
53.7% | OCCCN1CCC(=C2c3ccc(Cl)cc3CCc3cccnc32)CC1 | 360 s | 360 s
50.6% | OCCN1CCC(=C2c3ccc(Cl)cc3CCc3cccnc32)CC1 | 248.5 s | 133.3 s

The remaining lines, values behind:

Structure (SMILES) | inhibition [3] | Time (Cavia porcellus [1]) | Time (Cavia porcellus [2])
CC[C@H](CO)N1CCC(=C2c3ccc(Cl)cc3CCc3cccnc32)CC1 | 29.4% | 229.2 s | 125.3 s
CN(C)CCC(c1ccc(Cl)cc1)c1ccccn1 (configuration not stated) [CHLORPHENIRAMINE] | 41.3% | 214.7 s | 105.7 s
C[C@H](c1ccccc1)N1CCC(=C2c3ccc(Cl)cc3CCc3cccnc32)CC1 | 31.4% | 309.6 s | 210.6 s
C[C@@H](c1ccccc1)N1CCC(=C2c3ccc(Cl)cc3CCc3cccnc32)CC1 | 32.1% | 273.2 s | 170.2 s
CC[C@@H](CO)N1CCC(=C2c3ccc(Cl)cc3CCc3cccnc32)CC1 | 53.5% | 216 s | 123.1 s
